# Data as given in article PMC11647725, “Discovery of 4-(5-Membered)Heteroarylether-6-methylpicolinamide Negative Allosteric Modulators of Metabotropic Glutamate Receptor Subtype 5” (ACS Medicinal Chemistry Letters, 2024).
# How the values were obtained:
# Rolipram = test: Lead Profiling Screen, Eurofins Panlabs; assay type: binding; conditions: rat
# [1] = target: Transporter, Dopamine (DAT) (Homo sapiens, UniProt Q01959); test: Lead Profiling Screen, Eurofins Panlabs; assay type: binding; conditions: hum, read-out: % inh at 10 μM
# Chain of Transporter, Dopamine (DAT) (Q01959 whole entry): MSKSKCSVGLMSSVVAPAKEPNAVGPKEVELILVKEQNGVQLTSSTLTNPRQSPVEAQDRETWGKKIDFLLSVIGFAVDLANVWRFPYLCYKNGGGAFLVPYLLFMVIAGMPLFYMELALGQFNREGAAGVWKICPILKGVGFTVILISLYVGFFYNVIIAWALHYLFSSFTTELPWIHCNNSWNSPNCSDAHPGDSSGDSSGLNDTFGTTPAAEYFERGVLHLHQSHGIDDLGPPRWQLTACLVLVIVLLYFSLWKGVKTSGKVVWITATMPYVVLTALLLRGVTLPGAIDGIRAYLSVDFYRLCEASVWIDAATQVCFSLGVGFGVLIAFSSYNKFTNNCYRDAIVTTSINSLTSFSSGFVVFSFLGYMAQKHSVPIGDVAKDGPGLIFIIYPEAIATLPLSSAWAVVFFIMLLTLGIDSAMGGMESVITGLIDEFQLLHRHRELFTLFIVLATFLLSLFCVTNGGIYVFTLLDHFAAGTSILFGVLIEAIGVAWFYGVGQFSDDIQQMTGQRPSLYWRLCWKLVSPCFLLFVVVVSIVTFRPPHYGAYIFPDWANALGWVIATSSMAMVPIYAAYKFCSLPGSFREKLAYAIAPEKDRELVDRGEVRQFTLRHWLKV
# Tachykinin NK1 = Tachykinin NK1 (Homo sapiens, UniProt P25103); test: Lead Profiling Screen, Eurofins Panlabs; assay type: binding; conditions: Tachykinin NK1, hum, read-out: % inh at 10 μM
# Chain of Tachykinin NK1 (P25103 whole entry): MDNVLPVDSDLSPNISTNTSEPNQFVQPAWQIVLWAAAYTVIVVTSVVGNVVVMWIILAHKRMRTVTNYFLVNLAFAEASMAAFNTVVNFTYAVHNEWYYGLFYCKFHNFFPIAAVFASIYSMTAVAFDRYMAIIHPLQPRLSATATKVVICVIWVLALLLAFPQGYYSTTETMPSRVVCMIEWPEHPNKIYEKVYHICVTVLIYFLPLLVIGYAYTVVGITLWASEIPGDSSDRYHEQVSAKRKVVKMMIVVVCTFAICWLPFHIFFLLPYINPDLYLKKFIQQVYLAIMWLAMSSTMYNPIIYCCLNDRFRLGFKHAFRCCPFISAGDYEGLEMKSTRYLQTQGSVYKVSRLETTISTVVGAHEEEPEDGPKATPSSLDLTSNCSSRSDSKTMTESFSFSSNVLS
# human mGlu7 = target: T1, human mGlu7 (Homo sapiens, UniProt Q14831); test: mGlu selectivity, calcium mobilization assay; assay type: cell-based
# T1 construct: expressed in transfected cells
# T1 sequence (Q14831 35-915): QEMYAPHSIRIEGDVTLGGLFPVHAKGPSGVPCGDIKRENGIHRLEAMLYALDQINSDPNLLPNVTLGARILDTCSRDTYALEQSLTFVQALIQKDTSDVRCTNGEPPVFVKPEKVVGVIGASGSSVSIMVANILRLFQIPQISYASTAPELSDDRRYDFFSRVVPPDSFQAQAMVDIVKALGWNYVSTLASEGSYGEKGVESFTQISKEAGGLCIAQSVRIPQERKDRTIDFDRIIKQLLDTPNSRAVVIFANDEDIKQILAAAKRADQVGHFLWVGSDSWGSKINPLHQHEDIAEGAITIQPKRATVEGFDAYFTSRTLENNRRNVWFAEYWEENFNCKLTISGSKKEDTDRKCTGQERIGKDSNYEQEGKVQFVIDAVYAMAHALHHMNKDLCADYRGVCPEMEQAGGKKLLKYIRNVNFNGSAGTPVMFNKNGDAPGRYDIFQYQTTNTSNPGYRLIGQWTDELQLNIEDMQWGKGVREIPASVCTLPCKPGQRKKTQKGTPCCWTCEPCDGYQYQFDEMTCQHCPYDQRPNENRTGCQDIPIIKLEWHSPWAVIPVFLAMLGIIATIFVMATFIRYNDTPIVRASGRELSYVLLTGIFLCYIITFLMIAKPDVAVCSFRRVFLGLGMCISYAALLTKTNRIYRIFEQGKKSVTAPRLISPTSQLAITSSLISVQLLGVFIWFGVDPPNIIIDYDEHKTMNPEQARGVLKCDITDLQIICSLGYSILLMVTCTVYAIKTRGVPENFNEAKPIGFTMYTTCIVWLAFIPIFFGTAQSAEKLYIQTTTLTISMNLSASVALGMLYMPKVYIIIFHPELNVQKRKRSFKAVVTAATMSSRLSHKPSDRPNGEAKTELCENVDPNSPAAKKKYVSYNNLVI
# Protocol: (§1) the presence of 5% CO2, the dye solutions were removed and replaced with assay buffer using a microplate washer, leaving 20 μL of assay buffer in the cell plate. The compound, agonist, and cell plates were placed inside the Functional Drug Screening System (FDSS 7000 or uCell, Hamamatsu, Japan) to measure the calcium flux. Assays were run at 37 °C. A triple add protocol was used to measure Ca kinetics. Briefly, after establishment of a fluorescence baseline for 2 seconds (excitation, 480 nm; emission, 530 nm), 20 µL of test compound was added to the cells and the response was measured for 140 seconds. This was followed by the addition of 10 µL (5X) of an EC20 concentration of Glu agonist, and the response of the cells was measured for 125 seconds. A third addition occurred by adding 12 uL (5X) of an EC80 concentration of Glu agonist and the response of the cells was measured for 90 seconds. […] Calcium fluorescence was recorded as fold over basal fluorescence and raw data were normalized to the maximal response to Glu agonist (ECMax). Compound-evoked decreases in calcium response in the presence of Glu EC80 agonist were determined as inhibition activity, and potency (IC50) and maximum inhibition responses (% GluMin) of compounds were determined using a four-parameter logistical equation using GraphPad Prism (La Jolla, CA) or the Dotmatics software platform (Woburn, MA) : […]
# human mGlu8 = target: T2, human mGlu8 (Homo sapiens, UniProt O00222); test: mGlu selectivity, calcium mobilization assay; assay type: cell-based
# T2 construct: expressed in transfected cells
# T2 sequence (O00222 34-908): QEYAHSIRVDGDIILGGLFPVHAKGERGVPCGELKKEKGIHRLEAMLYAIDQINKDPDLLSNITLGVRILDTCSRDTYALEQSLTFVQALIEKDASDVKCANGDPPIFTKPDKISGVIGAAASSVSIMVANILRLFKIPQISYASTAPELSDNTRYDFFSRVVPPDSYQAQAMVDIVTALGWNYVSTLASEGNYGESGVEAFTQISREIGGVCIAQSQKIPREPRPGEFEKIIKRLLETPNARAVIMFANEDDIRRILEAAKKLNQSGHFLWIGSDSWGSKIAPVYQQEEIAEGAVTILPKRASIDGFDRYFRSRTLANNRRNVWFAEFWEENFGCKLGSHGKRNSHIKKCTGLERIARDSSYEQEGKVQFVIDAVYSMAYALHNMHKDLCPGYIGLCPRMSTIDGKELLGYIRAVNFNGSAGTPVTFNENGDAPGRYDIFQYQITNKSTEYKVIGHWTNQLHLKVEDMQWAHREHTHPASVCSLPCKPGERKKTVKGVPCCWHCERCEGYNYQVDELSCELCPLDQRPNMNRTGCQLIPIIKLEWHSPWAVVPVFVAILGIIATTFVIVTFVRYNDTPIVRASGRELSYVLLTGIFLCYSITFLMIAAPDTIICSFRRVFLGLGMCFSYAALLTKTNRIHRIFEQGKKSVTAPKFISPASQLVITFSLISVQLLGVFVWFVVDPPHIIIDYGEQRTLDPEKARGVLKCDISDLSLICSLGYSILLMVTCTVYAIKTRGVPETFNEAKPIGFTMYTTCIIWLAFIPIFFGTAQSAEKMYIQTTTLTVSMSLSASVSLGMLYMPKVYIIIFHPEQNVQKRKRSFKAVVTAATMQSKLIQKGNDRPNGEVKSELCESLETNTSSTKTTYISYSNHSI
# Protocol: as §1
# Muscarinic M1 = Muscarinic M1 (Homo sapiens, UniProt P11229); test: Lead Profiling Screen, Eurofins Panlabs; assay type: binding; conditions: Muscarinic M1, hum, read-out: % inh at 10 μM
# Chain of Muscarinic M1 (P11229 whole entry): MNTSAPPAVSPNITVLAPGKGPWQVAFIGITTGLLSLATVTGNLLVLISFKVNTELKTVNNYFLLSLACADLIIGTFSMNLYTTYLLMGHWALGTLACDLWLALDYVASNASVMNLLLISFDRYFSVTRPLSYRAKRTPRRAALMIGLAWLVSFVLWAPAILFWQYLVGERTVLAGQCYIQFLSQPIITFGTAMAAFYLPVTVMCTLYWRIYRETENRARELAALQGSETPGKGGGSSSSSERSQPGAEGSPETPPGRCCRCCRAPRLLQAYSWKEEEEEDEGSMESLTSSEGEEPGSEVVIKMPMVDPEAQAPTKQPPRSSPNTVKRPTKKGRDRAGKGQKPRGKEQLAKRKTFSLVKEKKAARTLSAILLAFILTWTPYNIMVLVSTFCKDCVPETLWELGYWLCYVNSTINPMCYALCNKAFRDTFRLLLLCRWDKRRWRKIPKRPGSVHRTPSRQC
# Glutamate, Kainate = test: Lead Profiling Screen, Eurofins Panlabs; assay type: binding; conditions: rat
# Source text: (§2) Nonetheless, as a non-aryl/heterobiaryl acetylene mGlu5 NAM with an encouraging in vivo rodent PK profile, we wished to further assess VU6043653 as a novel chemotype. Therefore, we compared metabolites in multiple species to better understand species differences in clearance and metabolism. […] Consistent with the high plasma clearance observed in dogs, high turnover was observed more so in dog hepatocytes than any other species tested (see the Supporting Information for additional details and results). To further evaluate our novel chemotype, the off-target and safety/toxicity profiles for this compound were further investigated.
# (§3) Table S2. Lead Profiling Screen – Eurofins Panlabs for VU6043653.
# (§4) Assay Name Species % inh at 10 μM […]
# GABAA, Muscimol, Central = test: Lead Profiling Screen, Eurofins Panlabs; assay type: binding; conditions: rat
# Source text: as §2, §3, §4
# Calcium Channel N-Type = Calcium Channel N-Type (Rattus norvegicus, UniProt Q02294); test: Lead Profiling Screen, Eurofins Panlabs; assay type: binding; conditions: read-out: % inh at 10 μM
# Source text: as §2, §3, §4
# Glutamate, NMDA, Glycine = Glutamate, NMDA, Glycine (Rattus norvegicus, UniProt P35439); test: Lead Profiling Screen, Eurofins Panlabs; assay type: binding; conditions: read-out: % inh at 10 μM
# Chain of Glutamate, NMDA, Glycine (P35439 394-800 limits assumed): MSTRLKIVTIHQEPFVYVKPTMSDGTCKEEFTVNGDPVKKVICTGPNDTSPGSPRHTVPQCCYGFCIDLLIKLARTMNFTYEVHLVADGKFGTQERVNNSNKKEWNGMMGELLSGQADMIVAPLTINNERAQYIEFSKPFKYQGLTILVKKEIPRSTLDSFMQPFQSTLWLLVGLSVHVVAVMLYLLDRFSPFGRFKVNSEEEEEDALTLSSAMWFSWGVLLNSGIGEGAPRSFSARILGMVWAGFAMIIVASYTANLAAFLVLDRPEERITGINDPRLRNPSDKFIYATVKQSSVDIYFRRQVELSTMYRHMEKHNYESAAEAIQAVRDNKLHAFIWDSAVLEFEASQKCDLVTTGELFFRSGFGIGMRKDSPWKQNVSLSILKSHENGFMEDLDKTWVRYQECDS
# Source text: as §2, §3, §4
# Glutamate, NMDA, Agonism = test: Lead Profiling Screen, Eurofins Panlabs; assay type: binding; conditions: rat
# Source text: as §2, §3, §4
# [2] = test system: Calcium Channel L-Type, Benzothiazepine; test: Lead Profiling Screen, Eurofins Panlabs; assay type: binding; conditions: rat
# Source text: as §2, §3, §4
# [3] = test system: Calcium Channel L-Type, Dihydropyridine; test: Lead Profiling Screen, Eurofins Panlabs; assay type: binding; conditions: rat
# Source text: as §2, §3, §4
# [4] = test system: GABAA, Flunitrazepam, Central; test: Lead Profiling Screen, Eurofins Panlabs; assay type: binding; conditions: rat
# Source text: as §2, §3, §4
# [5] = target: Epidermal Growth Factor (EGF) (Homo sapiens, UniProt P00533); test: Lead Profiling Screen, Eurofins Panlabs; assay type: binding; conditions: hum, read-out: % inh at 10 μM
# Chain of Epidermal Growth Factor (EGF) (P00533 25-1210): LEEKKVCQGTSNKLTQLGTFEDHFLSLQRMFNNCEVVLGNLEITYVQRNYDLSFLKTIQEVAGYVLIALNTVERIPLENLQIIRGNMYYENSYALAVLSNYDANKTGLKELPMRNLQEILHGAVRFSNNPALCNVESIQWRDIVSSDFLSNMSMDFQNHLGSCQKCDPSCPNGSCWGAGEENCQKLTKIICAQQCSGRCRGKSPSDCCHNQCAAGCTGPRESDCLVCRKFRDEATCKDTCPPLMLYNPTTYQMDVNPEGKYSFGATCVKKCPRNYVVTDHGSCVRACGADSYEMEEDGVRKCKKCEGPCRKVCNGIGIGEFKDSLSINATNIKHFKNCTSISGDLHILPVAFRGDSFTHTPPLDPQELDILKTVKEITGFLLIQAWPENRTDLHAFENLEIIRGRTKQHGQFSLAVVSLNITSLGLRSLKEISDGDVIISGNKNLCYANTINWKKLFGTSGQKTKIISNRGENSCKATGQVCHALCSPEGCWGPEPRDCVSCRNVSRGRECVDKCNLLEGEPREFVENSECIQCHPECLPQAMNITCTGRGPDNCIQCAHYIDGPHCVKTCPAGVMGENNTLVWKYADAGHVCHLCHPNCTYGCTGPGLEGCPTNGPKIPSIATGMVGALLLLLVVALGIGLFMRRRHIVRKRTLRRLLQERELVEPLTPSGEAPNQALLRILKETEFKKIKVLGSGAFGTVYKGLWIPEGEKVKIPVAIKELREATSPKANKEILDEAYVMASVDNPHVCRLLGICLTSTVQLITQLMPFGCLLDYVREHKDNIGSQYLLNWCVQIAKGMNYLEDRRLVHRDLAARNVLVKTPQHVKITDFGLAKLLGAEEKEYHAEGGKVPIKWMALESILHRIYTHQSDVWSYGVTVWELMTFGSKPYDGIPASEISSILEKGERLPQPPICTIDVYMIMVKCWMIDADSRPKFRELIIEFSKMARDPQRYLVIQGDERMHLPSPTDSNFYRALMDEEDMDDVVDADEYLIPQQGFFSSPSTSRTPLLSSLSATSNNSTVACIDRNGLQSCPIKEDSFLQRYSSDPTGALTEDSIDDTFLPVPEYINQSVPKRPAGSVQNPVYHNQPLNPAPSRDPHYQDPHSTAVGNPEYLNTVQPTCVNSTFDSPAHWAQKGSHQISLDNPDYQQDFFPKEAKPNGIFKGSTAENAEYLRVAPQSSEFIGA
# Source text: as §2, §3, §4
# [6] = test system: Glutamate, NMDA, Phencyclidine; test: Lead Profiling Screen, Eurofins Panlabs; assay type: binding; conditions: rat
# Source text: as §2, §3, §4
structure (smiles),measurement,setting,value
Cc1cc(Oc2cnn(C)c2)cc(C(=O)Nc2ccc(F)cn2)n1 [22iA],% inh at 10 μM,Rolipram,-2%
same,inhibition at 10 µM,[1],25%
same,inhibition at 10 µM,Tachykinin NK1,15%
same,"IC50, human mGlu7",human mGlu7,inactive
same,"IC50, human mGlu8",human mGlu8,inactive
same,inhibition at 10 µM,Muscarinic M1,-13%
same,% inh at 10 μM,"Glutamate, Kainate",-7%
same,% inh at 10 μM,"GABAA, Muscimol, Central",-5%
same,inhibition at 10 µM,Calcium Channel N-Type,-8%
same,inhibition at 10 µM,"Glutamate, NMDA, Glycine",-18%
same,% inh at 10 μM,"Glutamate, NMDA, Agonism",3%
same,% inh at 10 μM,[2],22%
same,% inh at 10 μM,[3],1%
same,% inh at 10 μM,[4],0%
same,inhibition at 10 µM,[5],-3%
same,% inh at 10 μM,[6],-4%
